Results: PMC11799239, “Mechanistic insights into Rho/MRTF inhibition-induced apoptotic events and prevention of drug resistance in melanoma: implications for the involvement of pirin” (Frontiers in Pharmacology, 2025)

Target: T1, pirin (Homo sapiens, UniProt O00625)
T1 construct: gene PIR
T1 sequence (O00625 1-290): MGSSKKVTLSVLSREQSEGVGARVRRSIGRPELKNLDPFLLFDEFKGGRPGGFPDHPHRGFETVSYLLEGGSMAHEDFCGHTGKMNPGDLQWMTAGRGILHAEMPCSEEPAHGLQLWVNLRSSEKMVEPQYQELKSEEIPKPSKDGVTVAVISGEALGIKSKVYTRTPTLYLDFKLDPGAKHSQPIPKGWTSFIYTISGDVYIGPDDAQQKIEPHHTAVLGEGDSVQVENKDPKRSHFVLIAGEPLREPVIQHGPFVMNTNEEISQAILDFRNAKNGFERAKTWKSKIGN
Test: fluorescence polarization competition with a pirin FP reporter compound
Assay type: binding
Conditions: read-out: CCG-257081 (S enantiomer) [drawing 1]

## O=C(Nc1ccc(Cl)cc1)[C@@H]1CN(C(=O)c2cc(F)cc(-c3ccncc3)c2)CC(F)(F)C1 [(S) CCG-257081]
  IC50: 8 µM
